Experimental data published in patent US20150259313A1, “Antitumor Agent” (priority 2014, published 2015).
Entries after “also recorded” stand apart in the source; their conditions may differ. Read-outs that look alike come from different tables or passages of the source.

Experiments:
[1] = Pharmacokinetic study of jervine in mice; assay type: in vivo; settings: CD-1 mice
Protocol: Orally dosed: A total of 3 male experimental CD-1 mice, approximately 8 weeks of age at receipt was administered jervine via oral gavage at 10 mg/kg. Blood samples (300 μL) were collected via cardiac puncture predose and at 2 minute, 5 minute, 15 minute, 0.5 hour, 1 hour, 2 hour, 4 hour, 8 hour, 24 hours postdose. Plasma was made form the blood samples in order to measure the concentration of jervine.

[2] = test system: hedgehog signaling pathway; assay: Gli luciferase reporter assay in Gli Reporter-NIH3T3 cells stimulated with mShh; assay type: cell-based; settings: mShh 1 μg/ml, 27 hours, read-out: IC50 for inhibition of the hedgehog signaling pathway
Protocol: In vitro test: Experimental method to measure the inhibition of jervine on the hedgehog signaling pathway
Hedgehog signaling pathway Gli Reporter-NIH3T3 cells were cultured in DMEM medium with 10% Calf serum, 1% Penn-strep, 500 μg/ml of Geneticin.
To perform the Gli luciferase reporter assay, Gli Reporter-NIH3T3 cells were seeded at 25,000 cells per well into white clear-bottom 96-well microplate in 100 μl of growth medium. Cells were incubated at 37° C. and 5% CO2 for overnight. Next day remove the medium from wells and add 45 μl of diluted inhibitor in assay medium (Opti-MEM Reduced Serum Medium+0.5% calf serum+1% non-essential amino acids+1 mM Na-pyruvate+10 mM HEPES+1% Pen/Strep) per well. Incubate cells at 37° C. in a CO2 incubator for 2 hours. Then add 5 μl of diluted mShh in assay medium to wells (final [mShh]=1 μg/ml). Add […] of assay medium to cell-free control wells. Cells were treated for 27 hours. […] Luminescence was measured using a luminometer(BioTek Synergy™ 2 microplate reader) 2.3 Data Analysis
Reporter assays in triplicate were performed at each concentration. The luminescence intensity data were analyzed using the computer software, Graphpad Prism. In the absence of the compound, the luminescence intensity (Lt) in each data set was defined as 100%. In the absence of cells, the luminescence intensity (Lb) in each data set was defined as 0%. […]

[3] = Maximum tolerated dose of jervine on BALB/c nude mice; assay type: in vivo; settings: 14 days
Protocol: Result indicates the maximum tolerated dose of jervine is higher than 80 mg/kg for BALB/c mice.
Study the maximum tolerated dose of jervine on BALB/c nude mice 9 BALB/c nude mice were divided equally into 3 groups. The mice were orally dosed at 50 mg/kg, 80 mg/kg and 150 mg/kg by groups. […] It was initialy determinded that the maximum tolerated dose is higher than 80 mg/kg for BALB/c nude mice.

[4] = test system: NCI-H2122 lung cancer xenograft; assay type: in vivo, BALB/c nude mice
Protocol: (§1) NCI-H2122 cells were cultured in RMPI1640 medium, A431 tumor cells were cultured in DMEM medium, all the medium were supplemented with 10% heat inactivated fetal bovine serum, all cells used EDTA containing trypsin, passaged twice a week, incubated at 37° C. in an atmosphere of 5% CO2 in air and cultured.
(§2) 110 BALB/c nude mice, female, 6-8 weeks old, 18-22 g in body weight, were purchased from Shanghai Laboratory Animal Center (SLAC, Shanghai, China). The mice were kept in individually ventilated cage (NC) systems at constant temperature and humidity, with 20.5-24.5° C. for temperature, 40-75% for humidity. With 4 animals in each cage, the size ogf the cage is 325 mm×210 mm×180 mm. The bedding material is corn cob, which is changed twice per week. Animals had free access to irradiation sterilized dry granule food and water during the entire study period. The food and water were changed twice per week. The identification labels for each cage contain the following information: number of animals, sex, strain, and date received treatment, study number, group number, and the starting date of the treatment. Animals were marked by ear coding. The experiments started one week after receiving the animals.
Each mouse were inoculated subcutaneously at the right flank region with NCI-H2122 tumor cells (5×10^7/ml), NCI-H1703 tumor cells (1×10^8/ml) and A431 tumor cells (5×10^7/ml), respectively in a mixture of phosphate-buffered saline and matrigel for tumor development via a 1 ml syringe. The treatments were started when the mean tumor size reached about 200 (150-250) mm^3. […]
8.1 Tumor size was measured twice weekly in two dimensions using a caliper, and the volume was expressed in mm^3 using the formula: V=0.5 a×b^2 where a and b are the long and short diameters of the tumor, respectively. […]
(§3) A one-way analysis of variance was performed followed by multiple comparison procedures. All data was analyzed using SPSS 18.0.*p <0.05 or **P<0.01 are generally considered statistically significant when compared with vehicle group.

[5] = test system: BXPC-3 human pancreatic carcinoma xenograft; assay type: in vivo, BALB/c nude mice; settings: BXPC-3 xenograft
Protocol: BXPC-3 tumor cells cultured in RMPI1640 medium supplemented with 10% heat inactivated fetal bovine serum, all cells used EDTA containing trypsin, passaged twice a week, incubated at 37° C. in an atmosphere of 5% CO2 in air and cultured.
40 BALB/c nude mice, female, 6-8 weeks old, 18-22 g in body weight, were purchased from Shanghai Laboratory Animal Center (SLAC, Shanghai, China).
Each mouse was inoculated subcutaneously at the right flank region with BXPC-3 tumor cells (5×10^7) in 0.1 ml of phosphate-buffered saline with matrigel via a 1 ml syringe for tumor development. The treatments were started when the mean tumor size reaches approximately 200 (150-250) mm^3 at 9 days after inoculation.

[6] = test system: A431 basal cell carcinoma xenograft; assay: A431 basal cell carcinoma xenograft tumor model, inoculated subcutaneously; assay type: in vivo, BALB/c nude mice; settings: 40-80 mg/kg p.o. QD × 21 days
Protocol: as §1, §2
(§4) Each mouse were inoculated subcutaneously at the right flank region with NCI-H2122 tumor cells (5×10^7/ml), NCI-H1703 tumor cells (1×10^8/ml) and A431 tumor cells (5×10^7/ml), respectively in a mixture of phosphate-buffered saline and matrigel for tumor development via a 1 ml syringe. The treatments were started when the mean tumor size reached about 200 (150-250) mm^3.
(§5) After tumor volume reached 3000 mm^3 or average tumor volume reached 2000 mm^3, before experimental animals emaciated or coma, anesthesia and euthanasia will be performed. During the experiment, if the weight loss of experimental animal reaches 20%, administration will be discontinued and experimental animals will be observed until the weight returned to 10% range before restart of the administration. In this experiment, when the mean tumor volume reached 2000 mm^3 or at the end of 59 days after the administration, experimental animals will be anesthesiaed to collect tumor mass which will be weighed and photographed.
(§6) 8.1 Tumor size was measured twice weekly in two dimensions using a caliper, and the volume was expressed in mm^3 using the formula: V=0.5 a×b^2 where a and b are the long and short diameters of the tumor, respectively.
(§7) 8.2 T/C, percent value, T and C were the mean volume of the treated and control groups, respectively, on a given day.
as §3

[7] = test system: A431 xenograft; assay: as above; assay type: in vivo, BALB/c nude mice
Protocol: as §1, §2, §4, §5, §6, §7, §3

[8] = male, mouse, PO 10 mg/Kg, plasma

CC1=C2C(=O)[C@H]3[C@@H](CC=C4C[C@@H](O)CC[C@@]43C)[C@@H]2CC[C@]12O[C@@H]1C[C@H](C)CN[C@H]1[C@H]2C [jervine, Jervine]
F (bioavailability) ([1]; PO 10 mg/Kg, 10 mg/kg): 41.2% | bioavailability ([1]; male, CD-1, mouse, plasma, po, 10 mg/kg, read-out: F (bioavailability)): 41% | AUC(0-inf) [1, 8]: 2260 ng·h/mL | AUC(0-t) [1, 8]: 1790 ng·h/mL | Cmax [1, 8]: 368 ng/mL | half-life ([1]; male, mouse, PO 10 mg/Kg, plasma, read-out: T½ (converted)): 11.8 h | IC50 [2]: 50 nM | animal deaths ([3]; 50 mg/kg oral): no animal dead | weight loss ([3]; 80 mg/kg oral gavage): no significant weight loss | animal deaths ([3]; 80 mg/kg oral): no animal die; also recorded: no animal dead | animal deaths ([3]; 150 mg/kg oral, 3 mice per group): Two | MTD ([3]; mouse, in vivo, oral, BALB/c nude mice): > 80 mg/kg | T/C value (tumor volume) ([4]; 40 mg/kg p.o. QD for 21 days): 0.79 | T/C value (tumor volume) ([4]; 60 mg/kg p.o. QD for 21 days): 0.701 | T/C value (tumor volume) ([4]; 80 mg/kg p.o. QD for 21 days): 0.594 | T/C value (tumor volume) ([5]; 20 mg/kg iv QD × 21 days): 25.8% | T/C value (tumor volume) ([5]; 40 mg/kg iv QD × 21 days): 59.1% | T/C value (tumor volume) ([5]; 80 mg/kg iv QD × 21 days): 54.2% | side effects / weight loss of the mice [6]: no obvious side effects; also recorded: no significant of weight lose | T/C value (tumor volume) ([7]; 40 mg/kg p.o. QD for 21 days): 0.52 | T/C value (tumor volume) ([7]; 60 mg/kg p.o. QD for 21 days): 0.80 | T/C value (tumor volume) ([7]; 80 mg/kg p.o. QD for 21 days): 0.82
